Data reported in PubChem BioAssay AID1996.
Converted amounts (≈) assume the structure as drawn.

Conditions: buffer; pH 7.4; 200.0 µM

Row | Compound | solubility kinetic [µg/mL]
1 | O=C1COc2ccccc2N1Cc1ccc(Cl)cc1 | 10.3 (≈ 37.6 µM)
2 | COC(c1ccccc1)(c1ccccc1)C(Oc1nccc(C)n1)C(=O)O (configuration not stated) | 51 (≈ 140 µM)
3 | O=[N+]([O-])c1ccc2ncnc(Nc3ccc4c(c3)OCCO4)c2c1 | 0.2 (≈ 0.617 µM)
4 | O=C(NCCOc1ccccc1)c1ccccc1Cl | > 41.4
5 | COc1ccccc1Nc1nc(NCCCN(C)C)nc(N)c1[N+](=O)[O-] | > 54.2
6 | CC(=O)c1ccc(NC(=O)C(C)O/N=C(\N)c2ccccc2)cc1 (configuration not stated) | 45.5 (≈ 140 µM)
7 | N#CCN1CCC2(O)CCCCC2C1c1ccc2c(c1)OCO2 (configuration not stated) | 42 (≈ 134 µM)
8 | CC(C)[C@H](NC(=O)c1ccccc1)C(=O)O | > 33.2
9 | CCc1ccc(/C=C2\SC(N3CCCC3)=NC2=O)cc1 | 12.8 (≈ 44.7 µM)
10 | CC1=C(Cl)C2=NS(=O)(=O)CCN2C=C1Cl | > 40.1
11 | Cc1ccc(NC(=O)Nc2ccon2)cc1Cl | 4 (≈ 15.9 µM)
12 | CCN1C(=O)CSC1=Nc1ccc(OC)cc1 | 33.4 (≈ 133 µM)
13 | O=C(COc1ccccc1Cl)NCCCNC(=O)c1ccco1 | > 50.5
14 | Cc1nc2c(=O)n(-c3ccc(F)cc3F)nc(C)c2s1 | > 44
15 | CCCCOc1ccc(C(=O)OCC(=O)NC2CCCC2)cc1 | 5.5 (≈ 17.2 µM)
16 | Nn1c(C2CCC2)nc2ccccc2c1=O | > 32.3
17 | O=C(NNC(=S)NC(=O)c1ccccc1)c1cccnc1 | > 45.1
18 | CCC(=O)N1C(=O)C2(Nc3ccccc3N2)c2ccccc21 | > 44
19 | NC(=O)c1cc(S(=O)(=O)Nc2cccc(Cl)c2)cs1 | > 47.5
20 | COc1cccc(N2C(=O)C3CCCN3C2=S)c1 (configuration not stated) | > 39.3
21 | COc1ccc(/C=C/C(=O)OCC(=O)Nc2cccc(S(=O)(=O)NC3=NCCCCC3)c2)cc1 | 12.4 (≈ 25.5 µM)
22 | CCCCNC(=O)c1ccc2c(c1)N(C)C(=O)c1ccccc1S2 | 5.3 (≈ 15.6 µM)
23 | CCOc1ccccc1NC(=O)/C(C#N)=C/c1cccnc1 | 18.8 (≈ 64.1 µM)
24 | NC(=O)c1ccccc1N1CCCCC1 | > 30.6

Row | Compound | solubility kinetic [µg/mL]
25 | COCCN(C(=S)Nc1c(C)cccc1C)C(C)c1cccs1 (configuration not stated) | 16.1 (≈ 46.2 µM)
26 | CC(C)(C)N(Cc1ccccc1)C(=O)COC(=O)c1ccc(S(=O)(=O)N2CCOCC2)cc1 | 18.4 (≈ 38.8 µM)
27 | Cn1ncc([N+](=O)[O-])c1C(=O)Nc1ccccc1 | > 36.9
28 | CCN(CC)c1c([N+](=O)[O-])c(=O)n(C)c2ccccc12 | 24.9 (≈ 90.4 µM)
29 | CC(C)c1c(O)nc(SCC(=O)N2CCCCC2)[nH]c1=O | > 46.7
30 | Cc1ccc(/C=C2\C(=O)NC(=O)N(CC3CCCO3)C2=O)s1 (configuration not stated) | > 48.1
31 | CS(=O)(=O)c1ccccc1C(=O)Nc1ccc(S(=O)(=O)N2CCCC2)cc1 | > 61.3
32 | O=C(NC1=NCCS1)C1CCCCC1 | > 31.8
33 | COc1ccccc1CNC(=O)COC(=O)/C=C/c1ccc2c(c1)OCO2 | 5.4 (≈ 14.6 µM)
34 | N#Cc1c(N)n(-c2ccc(O)cc2)c2nc3ccccc3nc12 | 1.2 (≈ 3.98 µM)
35 | O=C(/C=C/c1ccco1)NC(=S)Nc1cccc(C(=O)O)c1 | > 47.4
36 | O=C(O)c1ccc[n+](Cc2ccc([N+](=O)[O-])cc2)c1.[Br-] | > 50.9
37 | CC(=O)c1cc2c(cc1NC(=O)CN(C)S(=O)(=O)c1cccs1)OCO2 | 6.4 (≈ 16.1 µM)
38 | COc1cc(SC)ccc1C(=O)NC1CCCc2ccccc21 (configuration not stated) | < 0.7
39 | O=C(COC(=O)c1cccc(Cl)c1Cl)NC1CCCC1 | 12.8 (≈ 40.5 µM)
40 | Cc1noc(C)c1S(=O)(=O)N1CCC(C(=O)c2ccccc2)CC1 | 30 (≈ 86.1 µM)
41 | Cc1sc2nc(-c3cccs3)oc(=O)c2c1C | < 0.6
42 | Cc1noc2ncnc(Oc3ccccc3Cl)c12 | 28 (≈ 107 µM)
43 | COc1ccc(-c2cc(C(F)(F)F)c(C#N)c(SCC(=O)O)n2)cc1 | 53.6 (≈ 146 µM)
44 | COc1cccc(N=C2CC(C)(C)CC(=O)/C2=C(/O)c2ccccc2)c1 | 0.9 (≈ 2.58 µM)
45 | O=C(CSc1nnc2ccccn12)NC(=O)c1cccc([N+](=O)[O-])c1 | > 53.6
46 | Cc1ccc(NC(=O)COC(=O)C2CC2(Cl)Cl)cc1C (configuration not stated) | 47.1 (≈ 149 µM)
47 | COc1cc(-c2cc(C(=O)OCC(=O)NC3CC3)c3ccccc3n2)cc(OC)c1OC | 3.7 (≈ 8.48 µM)
